Assays:
RSV A2 = experiment: RSV plaque formation (infectivity) inhibition test in Hep-2 cell cultures; assay type: cell-based, respiratory syncytial virus (RSV) A2 strain; settings: Hep-2 cells
Experimental: The A2 strain of RSV was purchased from ATCC. The RSV was inoculated into a sub-confluent Hep-2 cell monolayer. […] The contents of the flask was resuspended in 1 ml aliquots, quick-frozen with alcohol/dry ice, and stored at −80° C. The virus titer of RSV was assessed by quantitative plaque forming assay and maintained titers in the range of 10^6 to 10^8pfu/ml for more than 6 months at −70° C.
Hep2 cells are known for being a permissive target cell for RSV infection and these cells express several chemokine receptors. Serial rounds of infections were performed with Hep-2 cells at different MOIs, ranging from 1:5 to 1:0.1. Hep-2 cells were systematically infected at these ranges of MOI. Subsequent experimental infection of Hep-2 cells with RSV were realized at a MOI 1:0.1. We investigated the role of the chemokine receptor CCR3 in supporting RSV infection. Immunoprecipitation technique followed by analysis of the immunoprecipitated complexes by SDS-PAGE were performed in order to gain insight into the physical contact between the RSV-G protein and the CCR3 receptor. Immunoprecipitation of the immune complexes will allow to assess, using SDS-PAGE and a specific antibody for the RSV-G protein, whether or not the contact of the virus glycoprotein with the cell receptor occurred. […] We noticed here that although the monoclonal antibody to RSV-G protein was diluted to 1:5000, it still cross reacted with a determinant of 43-45 kDa in all non infected or control cell types used in this work (see FIG. 1 lane 2). However, keeping in mind that all cell extracts were normalized to the same quantity of proteins before being loaded into SDS-PAGE. Therefore, the high intensity of the band, recognized by anti-RSV-G, and corresponding to the RSV-G protein precursor allowed us to differentiate between real infection and the background due to cross reactivity. We assessed if the CCR3 receptor was involved in virus infectivity of epithelial cells by performing RSV infectivity inhibition tests as described above. […]

[1] = target: T1, RSV-G protein and CCR3 receptor (Homo sapiens, UniProt P51677); experiment: Anti-CCR3 immunoprecipitation and anti-RSV-G Western blot of RSV-infected Hep2 cells; assay type: cell-based; settings: Hep2 cells infected by RSV in the presence of 2 μg/ml of Eotaxin; FIG. 1 lane 3
T1 construct: physical contact between the CCR3 receptor and the RSV-G protein in Hep-2 cells; endogenous in cells; host or cells: Hep-2 epithelial cells (ATCC) infected with RSV A2 (ATCC)
T1 sequence (P51677 1-355): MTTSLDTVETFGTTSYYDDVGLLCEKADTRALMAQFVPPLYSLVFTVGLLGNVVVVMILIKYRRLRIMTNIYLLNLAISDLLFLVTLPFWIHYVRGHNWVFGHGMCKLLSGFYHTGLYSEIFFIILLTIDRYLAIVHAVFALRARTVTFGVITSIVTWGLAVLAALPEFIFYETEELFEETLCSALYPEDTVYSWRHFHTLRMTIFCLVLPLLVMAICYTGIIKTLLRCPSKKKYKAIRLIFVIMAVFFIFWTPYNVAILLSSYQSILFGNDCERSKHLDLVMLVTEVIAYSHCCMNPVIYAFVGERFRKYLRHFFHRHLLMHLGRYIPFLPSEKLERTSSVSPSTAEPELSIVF
Experimental: (§1) A549, Hep2, or GHOST cells were infected by RSV A2 strain at different multiplicity of infection (MOI). The results presented in this work were performed at a MOI of 1:0.1. The MOI 1:0.1 is the cut off of permissive and restrictive infection. The cells expressing the chemokine receptor CCR3 (Ghost-CCR3+, Hep2 and A549) were found permissive at a MOI 1:0.1 and the chemokine receptor CCR3 is considered as the high affinity coreceptor for RSV infection. Infection experiments undertaken with GHOST cells expressing only one of the following chemokine receptors the CCR1, CCR2b, CCR4, CCR5, CCR8 or CXCR4, were performed at a MOI of 1:2. These GHOST cells (CCR1, CCR-2b, CCR-4, CCR-5, CCR-8 and CXCR4), were not infected at a MOls of 1:0.1 and 1:1. The chemokine receptors CCR1, CCR2, CCR4, CCR5, CCR8 were considered subsequently as low affinity coreceptors in regard to RSV infection. […] These cells were not infected by RSV at a MOI 1:5 and lesser (1:4, 1:3, 1:2, 1:1 and 1:0.1).
Cells were infected by RSV for 2 hr incubation in the presence or the absence of 2 μg/ml of Eotaxin, or of PBS solution and cultured for 3 days. […]
Hep2 cells are known for being a permissive target cell for RSV infection and these cells express several chemokine receptors. […] However, keeping in mind that all cell extracts were normalized to the same quantity of proteins before being loaded into SDS-PAGE. […]

RSV = RSV infection of CCR3 transfected GHOST cells, immunostaining; assay type: cell-based, respiratory syncytial virus (RSV) A2 strain; settings: Eotaxin 1 μg/ml, anti-RSV F-protein immunostaining, FIG. 3B
Experimental: as §1
We have also assessed whether CCR3 transfected GHOST cells support RSV infection and produce infectious virus. We performed this by using the same methods as described in FIG. 3. […]
After fixing the cells in 4% paraformaldehyde in phosphate buffered saline (PBS), the presence of virus was detected by immunostaining. […]

[2] = target: human chemokine receptor CCR3 (human) (UniProt P51677); experiment: cell-based or functional assay

Eotaxin
percent inhibition of virus plaques formation (RSV A2; Eotaxin greater or equal to 0.5 μg/ml, compared to PBS-treated cultures, three days post infection): 80%
RSV plaques as compared with PBS controls (RSV A2; each concentration of Eotaxin tested (0.01 to 1.0 μg/ml), p<0.05, Student's t-test): statistically fewer RSV plaques
timing of inhibition of RSV infection (FIG. 2) (RSV A2; eotaxin added to culture medium, during virus adsorption): inhibited RSV infection most effectively early in infection
detection of RSV-G protein by RSV-G mAb in anti-CCR3 immunoprecipitated extracts [1]: failed to recognize the RSV-G protein
RSV infection of GHOST/CCR3 cells by immunostaining (RSV): inhibits infection by RSV
RSV infection of GHOST/CCR3 cells by immunostaining (RSV; listed as eotaxin): inhibits cellular infection by RSV

Eotaxin (from UniProt P51671 24-97) (ligand)
percent inhibition of virus plaques formation (RSV A2 on Hep-2 cells) [2]: 80%

Rat anti-human CCR3 (clone 61828.111) (antibody)
decrease in RSV infection of CCR3+ GHOST cells, immunostaining [2]: 80%
